Assay results taken from patent US4098781A, “Polypeptides with morphine-like activity” (American Home Products Corporation, priority 1977, dated 1978).
Peptide text beside a SMILES is read from it.

What was measured:
rats [1] = experiment: rat-tail flick method, intracerebroventricular injection; assay type: in vivo; parameters: Mean Latency ± SEM Baseline / Mean Latency ± SEM Drug: unit not given here; details: lateral ventricle; for Mean Latency ± SEM Baseline / Mean Latency ± SEM Drug: rat-tail flick; for Mean Latency ± SEM Baseline: baseline before drug; for Mean % Change ± SEM: change in latency (drug minus baseline)
Method: In this test method, which is a standard test for analgesia, a light beam is focused on the tip of the rat's tail, and the pain threshold of the animal is measured by the latency of the rat to remove his tail from the noxious heat source. When tested by the rat-tail flick method by intracerebroventricular injection, according to the procedure of Belluzzi et al., Nature, 260, 625 (1976), the polypeptides of this invention produced the effects set forth in Table I.
*All drugs were dissolved in […]. of Ringer's solution and injected int
the lateral ventricle through permanently-indwelling cannulae.

rats [2] = details: injection in the brain ventricle; cited from earlier work

SMILES | Mean Latency ± SEM Baseline (rats [1]; dose group 10 μg) | Mean Latency ± SEM Baseline (rats [1]; dose group 100 μg) | analgesia (rats [2]) | Mean % Change ± SEM (rats [1]; dose 25 μg, 1 rat) [%] | Mean % Change ± SEM (rats [1]; dose 50 μg) [%] | Mean % Change ± SEM (rats [1]; dose 100 μg) [%] | Mean Latency ± SEM Baseline (rats [1]; dose group 25 μg, 1 rat) | Mean Latency ± SEM Baseline (rats [1]; dose group 50 μg) | Mean Latency ± SEM Drug (rats [1]; dose 25 μg, 1 rat) | Mean Latency ± SEM Drug (rats [1]; dose 50 μg) | Mean Latency ± SEM Drug (rats [1]; dose 100 μg)
CN1CC[C@]23c4c5ccc(O)c4O[C@H]2[C@@H](O)C=C[C@H]3[C@H]1C5 [Morphine] | 3.96 ± 0.42 | – | – | – | – | – | – | – | – | – | –
CSCC[C@H](NC(=O)[C@H](Cc1ccccc1)NC(=O)CNC(=O)CNC(=O)[C@@H](N)Cc1ccc(O)cc1)C(=O)O [Methionine-Enkephalin, H-Tyr-Gly-Gly-Phe-Met-OH, reference compound] | – | 3.83 ± 0.14 | induce a profound analgesia that is fully reversible by naloxone | – | – | – | – | – | – | – | –
CSCC[C@H](NC(=O)[C@H](Cc1ccccc1)NC(=O)CNC(=O)CNC(=O)[C@H](Cc1ccc(O)cc1)NC(=O)[C@@H](N)CCCNC(=N)N)C(=O)N[C@H](C(=O)N[C@@H](CO)C(=O)O)[C@@H](C)O [L-Arginyl-L-Tyrosyl-Glycyl-Glycyl-L-Phenylalanyl-L-Methionyl-L-Threonyl-L-Serine] (H-RYGGFMTS-OH) | – | 3.43 ± 0.05 | – | 69.60 | 74.13 ± 15.56 | 55.13 ± 51.71 | 3.54 | 3.55 ± 0.13 | 6.01 | 6.18 ± 0.55 | 5.29 ± 1.10
